Laboratory results from ChEMBL document CHEMBL3286214, “Tyrosinase inhibitory activity of a glucosylated hydroxystilbene in mouse melan-a melanocytes” (J Nat Prod, 2014).
Active and inactive are the calls of the source. The calls are words filed in the database; no cut-off is given here.

How the values were obtained:
[1] = biological target: T1, Tyrosinase (Mus musculus, UniProt P11344); test: Inhibition of tyrosinase in mouse Melan-a cells assessed as decrease in L-DOPA Vmax at 120 uM by Lineweaver-Burk plot; type: cell-based
T1 sequence (P11344 whole entry): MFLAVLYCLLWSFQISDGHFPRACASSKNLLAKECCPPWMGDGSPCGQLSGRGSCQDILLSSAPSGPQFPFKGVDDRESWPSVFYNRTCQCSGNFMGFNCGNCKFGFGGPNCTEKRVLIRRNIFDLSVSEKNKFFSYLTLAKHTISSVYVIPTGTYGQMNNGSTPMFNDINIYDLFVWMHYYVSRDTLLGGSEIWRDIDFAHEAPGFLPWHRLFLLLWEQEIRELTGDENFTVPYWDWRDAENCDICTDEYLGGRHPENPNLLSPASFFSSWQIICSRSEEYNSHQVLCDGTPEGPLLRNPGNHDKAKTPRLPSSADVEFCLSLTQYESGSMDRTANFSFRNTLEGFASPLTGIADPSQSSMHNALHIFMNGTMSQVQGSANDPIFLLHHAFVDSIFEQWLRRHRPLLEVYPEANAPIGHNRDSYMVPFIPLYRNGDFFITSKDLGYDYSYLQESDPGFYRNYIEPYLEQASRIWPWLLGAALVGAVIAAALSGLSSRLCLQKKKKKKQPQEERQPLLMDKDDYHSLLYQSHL

[2] = Suppression of MITF expression in mouse Melan-a cells using forskolin-supplemented medium incubated for 1 day by Western blotting analysis; type: functional, cell-based
[3] = tested on: Melan-a; test: Effect on tyrosinase maturation in mouse Melan-a cells assessed as immature Endo H-sensitive form measured in endoplasmic reticulum using forskolin-supplemented medium at 60 to 120 uM by Western blotting analysis; type: functional, cell-based
[4] = biological target: T2, Tyrosinase (Mus musculus) (UniProt P11344); test: Inhibition of tyrosinase in mouse Melan-a cells assessed as decrease in L-DOPA Vmax by Lineweaver-Burk plot; type: cell-based
T2 sequence (whole entry): T1 sequence (P11344 whole entry)

[5] = biological target: T2, Tyrosinase (Mus musculus); test: Inhibition of tyrosinase in mouse Melan-a at 60 uM after 3 days by L-DOPA oxidation assay in presence of 1 uM forskolin melanogenesis inducer (reference value: 162%); parameters: scale not given: the % may be the effect or the level left
[6] = tested on: Melan-a; test: Suppression of tyrosinase/TRP-1 complex formation in mouse Melan-a cells using forskolin-supplemented medium at 120 uM incubated for 3 days by Western blotting analysis; type: functional, cell-based
[7] = biological target: T1, Tyrosinase; test: Inhibition of tyrosinase in mouse Melan-a cells assessed as decrease in L-DOPA Vmax at 240 uM by Lineweaver-Burk plot; type: cell-based
[8] = biological target: T2, Tyrosinase (Mus musculus); test: Inhibition of tyrosinase in mouse Melan-a cells after 3 days by L-DOPA oxidation assay in presence of 1 uM forskolin melanogenesis inducer; type: cell-based
[9] = biological target: T2, Tyrosinase (Mus musculus); test: Inhibition of tyrosinase in mouse Melan-a cells after 3 days by L-DOPA oxidation assay in presence of 20 nM TPA melanogenesis inducer; type: cell-based
[10] = tested on: Melan-a; test: Effect on tyrosinase localization in mouse Melan-a cells assessed as endoplasmic reticulum trapping at 60 uM incubated for 3 days by confocal immunofluorescence microscopy; type: functional, cell-based
[11] = Suppression of TRP1 expression in mouse Melan-a cells using forskolin-supplemented medium at 60 to 120 uM incubated for 1 day by Western blotting analysis; type: functional, cell-based
[12] = tested on: Melan-a; test: Effect on tyrosinase localization in mouse Melan-a cells assessed as lysosome at 60 uM incubated for 3 days by confocal immunofluorescence microscopy; type: functional, cell-based

Ki [1] [mM]	inhibition [4]	Activity [5] [%]	Ki [7] [mM]	inhibition [8]	inhibition [9]	SMILES	inhibition [2]	Activity [3]	inhibition [6]	Activity [10]	inhibition [11]	Activity [12]
2.9	–	–	–	–	–	Oc1ccc(/C=C/c2cc(O)cc(O)c2)cc1 [RESVERATROL]	–	–	–	–	–	–
2.8	Dose-dependent effect	103	2.5	Dose-dependent effect	Dose-dependent effect	OC[C@H]1O[C@@H](Oc2c(O)cc(O)cc2/C=C/c2ccc(O)cc2)[C@H](O)[C@@H](O)[C@@H]1O	Dose-dependent effect	inactive	Active	inactive	inactive	inactive
